Blank lines part the entries; values can stand above or below the compound they belong to.
Legend:
[1] = system: NF-kB-regulated genes; assay: qPCR array analysis of NF-kB-regulated transcripts in primary astrocytes; assay type: cell-based; conditions: astrocytes + MPTP and TNF/IFN; DIM-C-pPhOCH3 1 uM, DIM-C-pPhtBu concentration not given; FIG. 11(A)
Description: Expression of inflammatory genes in astrocytes is largely regulated through the NF-kB signaling pathway. Primary cultured astrocytes were treated with MPTP and TNF/IFN in the presence or absence DIM-C-pPhOCH3 (DIMS, 1 uM), DIM-C-pPhtBu (DIM4), rosiglitazone (Ro, 10 uM), or vehicle (DMSO) and subjected to qPCR array analysis of NF-kB-regulated transcripts (Superarray Biosciences). […] (n=4 biological replicates)

[2] = system: NF-κB; assay: NF-κB EGFP reporter live-cell imaging in cis-NF-κB-EGFP transgenic astrocytes; assay type: cell-based, mouse; conditions: 10 μM, FIG. 4B
From the text: NF-κB reporter assays in cis-NF-κB^EGFP transgenic astrocytes and expression of mutant IκBα. To measure activation of NF-κB in live cell, astrocytes were isolated from a unique transgenic mouse expressing a reporter construct consisting of three HIV NF-κB consensus elements inserted 5′ to a minimal c-fos promoter that drives expression of enhanced green fluorescent protein (EGFP) (Magness et al., 2004) (Provided by Dr. Christian Jobin, University of North Carolina at Chapel Hill). NF-κB activity was determined by live-cell imaging using a Zeiss 20× air PlanApochromat objective using SlideBook v4.2 (Intelligent Imaging Innovations, Inc., Denver, Colo.). […] This approach was consistent between all replicates. At least four microscopic fields were examined per treatment group in each of at least three independent experiments, and reported as percent activated cells 8 hours following treatments. […]
A wide array of inflammatory genes, including Nos2, are driven by the NF-κB signaling cascade. […] Real-time imaging of GFP fluorescence was performed in control transgenic astrocytes exposed to saline and in cells exposed to MPTP and TNF-α/IFN-γ in combination with DIM-C-pPhtBu (10 μM), rosiglitazone (10 μM), or DMSO. […]

[3] = system: proximal NF-κB enhancer element of the Nos2 promoter; assay: Chromatin immunoprecipitation (ChIP) at the proximal NF-κB enhancer element of the Nos2 promoter in astrocytes; assay type: cell-based, mouse; conditions: 10 μM co-treatment; FIG. 5
Description: Chromatin Immunoprecipitation (ChIP). ChIP procedures were adapted from a previously published report (Weinmann and Farnham, 2002) and optimized for primary astrocytes according to recent studies from our laboratory. Astrocytes were grown to confluence in 10 cm plates (Approx. 8.8×10^6 cells) and were treated for 3 hours with MPTP (10 μM), TNF-α (10 pg/ml) and IFN-γ (1 ng/ml) with or without DIM-C-pPhtBu (10 μM), rosiglitazone (10 μM) or a DMSO vehicle control for 3 hours prior to analysis. DNA was sheared into approximate 500 bp fragments by three ten-second pulses using a Tekmar Sonic Disrupter (Tekmar Co., Cincinnati, Ohio) set at 30% output, followed by collection of 10% input controls and addition of 2 μg precipitating antibody. Immune complexes were allowed to form overnight at 4° C. with gentle agitation, followed by the addition of protein-G magnetic beads (Active Motif, Carlsbad, Calif.) for an additional 90 min. Immunopurified DNA was isolated via phenol/chloroform extraction and subject to PCR using primers designed around the proximal murine Nos2 NF-κB binding region (Xie et al., 1992) (forward: 5′-ATGGCCTTGCATGAGGATACACCA-3′ Chromatin Immunoprecipitation (ChIP). ChIP procedures were adapted from a previously published report (Weinmann and Farnham, 2002) and optimized for primary astrocytes according to recent studies from our laboratory. Astrocytes were grown to confluence in 10 cm plates (Approx. 8.8×10^6 cells) and were treated for 3 hours with MPTP (10 μM), TNF-α (10 pg/ml) and IFN-γ (1 ng/ml) with or without DIM-C-pPhtBu (10 μM), rosiglitazone (10 μM) or a DMSO vehicle control for 3 hours prior to analysis. DNA was sheared into approximate 500 bp fragments by three ten-second pulses using a Tekmar Sonic Disrupter (Tekmar Co., Cincinnati, Ohio) set at 30% output, followed by collection of 10% input controls and addition of 2 μg precipitating antibody. Immune complexes were allowed to form overnight at 4° C. with gentle agitation, followed by the addition of protein-G magnetic beads (Active Motif, Carlsbad, Calif.) for an additional 90 min. Immunopurified DNA was isolated via phenol/chloroform extraction and subject to PCR using primers designed around the proximal murine Nos2 NF-κB binding region (Xie et al., 1992) (forward: 5′-ATGGCCTTGCATGAGGATACACCA-3′(SEQ ID NO:5); reverse: 5′-GAGTCTCAGTCTTCAACTCCCTGT-3′(SEQ ID NO:6)). Amplicons were separated by 2% agarose gel electrophoresis and stained with ethidium bromide.
To determine the mechanism by which DIM-C-pPhtBu modulates NF-κB activity, the ChIP assay was used to identify specific DNA-protein interactions at the proximal NF-κB enhancer element (-86 to -76) of the Nos2 promoter.
Primary cultured astrocytes were treated with MPTP and TNF/IFN in the presence or absence of DIM-C-pPhOCH3 (DIMS, 1 uM) or rosiglitazone (Ro, 10 uM) and cellular lysates subjected to chromatin immunoprecipitation (ChIP) assay for HDAC3 association with the proximal NF-kB binding site in the Nos2 promoter. HDAC3 is a transcriptional co-repressor of Nos2 gene expression.

Compound: COc1ccc(C(c2c[nH]c3ccccc23)c2c[nH]c3ccccc23)cc1 [DIM-C-pPhOCH3, 1,1-bis(3′-indolyl)-1-(p-methoxyphenyl)methane]
- Neuroinflammatory gene expression (TNF Receptor, Toll Receptor, Interleukin 1beta) [1]: suppressed neuroinflammatory gene expression

- Binding of p65 to the Nos2 promoter induced by MPTP and cytokines [3]: blocked
Compound: CC(C)(C)c1ccc(C(c2c[nH]c3ccccc23)c2c[nH]c3ccccc23)cc1 [DIM-C-pPhtBu, 1,1-bis(3′-indolyl)-1-(p-t-butylphenyl)methane]
- Suppression of MPTP+TNF-α/IFN-γ induced increase in total cellular GFP fluorescence (NF-κB activity) [2]: completely suppressed
- Recruitment of PPAR-γ to the proximal NF-κB response element [3]: did not recruit PPAR-γ
- Stabilization of NCoR2 at the proximal NF-κB response element [3]: nor did it stabilize NCoR2
- Neuroinflammatory gene expression (TNF Receptor, Toll Receptor, Interleukin 1beta) [1]: suppressed neuroinflammatory gene expression

Compound: CN(CCOc1ccc(CC2SC(=O)NC2=O)cc1)c1ccccn1 (stereo not drawn) [rosiglitazone, 5-((4-(2-(methyl-2-pyridinylamino)ethoxy)phenyl)methyl)-2,4-thiazolidinedione, reference compound]
- Suppression of MPTP+TNF-α/IFN-γ induced increase in total cellular GFP fluorescence (NF-κB activity) [2]: completely suppressed
- Recruitment of PPAR-γ to the proximal NF-κB response element [3]: recruited PPAR-γ
- Stabilization of NCoR2 at the proximal NF-κB response element [3]: prevented degradation of NCoR2
